Test system: endogenous Nicotiana benthamiana Argonaute-1 (AGO1) gene
Test: AGO1 anti-sense polynucleotides with or without PDS anti-sense polynucleotide, systemic bleaching (Example 33)
Assay type: in vivo
Conditions: PDS 25 nanomoles; AGO1 50 nanomoles of each of 14 polynucleotides; applied on separate leaves
Text: A second set of experiments was designed to investigate the effects of silencing a component of the endogenous RNAi silencing pathway in a plant. Argonaute (AGO) proteins are components of the RNA-induced silencing complex (RISC) which binds small RNAs in the RNAi silencing process. Suppression of Argonaute would be expected to reduce the observed phenotypic effect caused by an RNAi silencing process. AGO1 anti-sense polynucleotides with the sequences […] (HL510, SEQ ID NO:300), […] (HL511, SEQ ID NO:301), […] (HL512, SEQ ID NO:302), […] (HL513, SEQ ID NO:303), […] (HL514, SEQ ID NO:304), […] (HL515, SEQ ID NO:305), […] (HL516, SEQ ID NO:306), […] (HL517, SEQ ID NO:307), […] (HL518, SEQ ID NO:308), […] (HL519, SEQ ID NO:309), […] (HL520, SEQ ID NO:310), […] (HL521, SEQ ID NO:311), […] (HL522, SEQ ID NO:312), […] (HL523, SEQ ID NO:313) were designed for the endogenous Nicotiana benthamiana Argonaute-1 (AGO1) gene, based on two Nicotiana benthamiana AGO1-2 partial cDNA sequences, • […] […] […] […] […] […] […] […] […] […] […] […] […] […] […] […] […] […] […] […] […] […] […] […] […] […] […] […] […] […] […] […] […] […] […] […] […] […] […] […] […] […] […] GC (SEQ ID NO:314) and • […] […] […] […] […] […] […] […] […] […] […] […] […] […] […] […] […] […] […] […] […] […] […] […] […] […] […] […] […] […] […] […] […] […] […] […] […] […] […] […] […] […] […] […] […] […] […] […] (SEQ ID NO:315).
Nicotiana benthamiana plants were treated using a procedure similar to that described in Example 12. […]

With “CATCTCCTTTAATTGTACTGC (DNA, backbone not given here) [PDS 21-mer anti-sense ssDNA]” the “systemic bleaching / difference to buffer” value was “displayed systemic bleaching”.
